Reference: ChEMBL document CHEMBL1124205, “Synthesis and antiviral evaluation of 6'-substituted aristeromycins: potential mechanism-based inhibitors of S-adenosylhomocysteine hydrolase” (J Med Chem, 1988)

Key:
HEp-2 = assay: Cytotoxic concentration against HEP-2 cells; assay type: functional, cell-based; conditions: Homo sapiens
Human alphaherpesvirus 1 [1] = assay: Concentration at which 50% of the herpes simplex virus type 1 HSV-1 (F) induced cytopathic effect are inhibited is determined; assay type: functional; conditions: read-out: ED50 (the source's name)
Human alphaherpesvirus 2 [2] = assay: Antiviral activity against herpes simplex virus type 2 HSV-2 (F) expressed as viral rating (VR); assay type: functional
Human alphaherpesvirus 1 [3] = assay: Antiviral activity against herpes simplex virus type 1 HSV-1 (F) expressed as viral rating (VR); assay type: functional
Human alphaherpesvirus 2 [4] = assay: Concentration at which 50% of the herpes simplex virus type 2 […] (F) induced cytopathic effect are inhibited is determined; assay type: functional; conditions: read-out: ED50 (the source's name)
Vaccinia virus [5] = assay: Antiviral activity against vaccinia virus in HEP -2 cells; assay type: functional, Orthopoxvirus vaccinia
Vaccinia virus [6] = conditions: read-out: ED50
Vaccinia virus [7] = assay: Inhibition of vaccinia virus induced cytopathic effects in HEP -2 cells; assay type: functional; conditions: Orthopoxvirus vaccinia, read-out: ED50 (the source's name)

Nc1ncnc2c1ncn2C1C(O)C(F)C(CO)C1O (stereo not drawn)
Concentration (HEp-2): 225 µM | EC50 (Human alphaherpesvirus 1 [1]): 225 µM | VR (Human alphaherpesvirus 2 [2]): 0 | VR (Human alphaherpesvirus 1 [3]): 0 | EC50 (Human alphaherpesvirus 2 [4]): 225 µM

Nc1ncnc2c1ncn2[C@@H](C=O)O[C@@H](C=O)CO
Concentration (HEp-2): 100 µM | VR (Human alphaherpesvirus 2 [2]): 0 | EC50 (Human alphaherpesvirus 2 [4]): > 3200 µM | VR (Vaccinia virus [5]): 1.3 | EC50 (Vaccinia virus [6]): 0.5 µM

Nc1nc2c(ncn2COC(CO)CO)c(=O)[nH]1 [GANCICLOVIR]
Concentration (HEp-2): > 3200 µM | EC50 (Human alphaherpesvirus 1 [1]): < 1 µM | VR (Human alphaherpesvirus 2 [2]): 1.6 | VR (Human alphaherpesvirus 1 [3]): 1.4 | EC50 (Human alphaherpesvirus 2 [4]): 1 µM

Nc1ncnc2c1ncn2[C@H]1[C@H](O)[C@H](O)[C@@H](CO)[C@@H]1F
Concentration (HEp-2): > 320 µM | EC50 (Human alphaherpesvirus 1 [1]): 90 µM | VR (Human alphaherpesvirus 2 [2]): 0.1 | VR (Human alphaherpesvirus 1 [3]): 0.1 | EC50 (Human alphaherpesvirus 2 [4]): 90 µM | VR (Vaccinia virus [5]): 0.4 | EC50 (Vaccinia virus [6]): 63 µM

C=C1C(CO)C(O)C(O)C1n1cnc2c(N)ncnc21 (stereo not drawn)
Concentration (HEp-2): 50 µM | EC50 (Human alphaherpesvirus 1 [1]): 16 µM | VR (Human alphaherpesvirus 2 [2]): 0.3 | VR (Human alphaherpesvirus 1 [3]): 0 | EC50 (Human alphaherpesvirus 2 [4]): 5 µM | VR (Vaccinia virus [5]): 0.9 | EC50 (Vaccinia virus [6]): 0.55 µM

Nc1ncnc2c1ncn2C1C(O)C(O)C(CO)C1O (stereo not drawn)
Concentration (HEp-2): > 320 µM | EC50 (Human alphaherpesvirus 1 [1]): 100 µM | VR (Human alphaherpesvirus 2 [2]): 0.3 | VR (Human alphaherpesvirus 1 [3]): 0.6 | EC50 (Human alphaherpesvirus 2 [4]): 100 µM | VR (Vaccinia virus [5]): 0.8 | EC50 (Vaccinia virus [6]): 18 µM

Nc1ncnc2c1ncn2[C@H]1[C@H](O)[C@H](O)[C@@H](CO)[C@H]1F
Concentration (HEp-2): 320 µM | EC50 (Human alphaherpesvirus 1 [1]): 10 µM | VR (Human alphaherpesvirus 2 [2]): 0.4 | VR (Human alphaherpesvirus 1 [3]): 0.4 | EC50 (Human alphaherpesvirus 2 [4]): 10 µM | VR (Vaccinia virus [5]): 0.8 | EC50 (Vaccinia virus [7]): 0.5 µM
